{"source": "paper PMC10575836", "about": "“Elevated acetate kinase (ackA) gene expression, activity, and biofilm formation observed in methicillin-resistant strains of Staphylococcus aureus (MRSA)” (Journal of Genetic Engineering & Biotechnology, 2023)", "target": "T1, recombinant ackA (S. aureus ATCC12600 acetate kinase) (Staphylococcus aureus, UniProt Q8NW53)", "T1 construct": "full-length, His-6 tag from pQE 30 (Sal I/Hind III), clone PSackA, expressed in E. coli DH5alpha, nickel column, 44 kDa on SDS-PAGE", "T1 sequence (Q8NW53 1-400)": "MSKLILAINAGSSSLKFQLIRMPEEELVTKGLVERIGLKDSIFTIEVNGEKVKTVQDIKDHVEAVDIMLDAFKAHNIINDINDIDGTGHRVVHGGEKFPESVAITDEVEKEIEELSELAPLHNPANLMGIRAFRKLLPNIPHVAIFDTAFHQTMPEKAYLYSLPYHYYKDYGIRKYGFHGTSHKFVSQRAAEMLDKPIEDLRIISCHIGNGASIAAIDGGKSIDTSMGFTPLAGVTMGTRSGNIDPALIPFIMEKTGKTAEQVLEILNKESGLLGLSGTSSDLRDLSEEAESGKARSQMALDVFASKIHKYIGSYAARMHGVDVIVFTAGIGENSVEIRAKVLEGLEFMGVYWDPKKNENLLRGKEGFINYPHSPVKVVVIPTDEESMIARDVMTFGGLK", "test": "coupled pyruvate kinase / lactate dehydrogenase assay, NADH at […] nm", "type": "biochemical", "conditions": "2 mM potassium acetate, 1.5 mM ATP, 2 mM MgCl2, 100 mM Tris-HCl pH 7.3"}
{"compound": "CC(=O)O", "note": "[potassium acetate]", "values": [{"measurement": "coupled pyruvate kinase / lactate dehydrogenase assay, NADH at 340 nm", "result": "Assays were initiated by the addition of either the cytosolic fraction or pure recombinant ackA"}]}
